According to US11471430B2, “Sphingosine analogs and use thereof against bacterial lung infections” (Yeda Research and Development Co. Ltd., priority 2018, dated 2022):

Legend:
[1] = tested on: P. aeruginosa strain 762; assay: P. aeruginosa strain 762 killing assay; type: cell-based; details: Pseudomonas aeruginosa; P. aeruginosa strain 762, 2 hours at 37° C., colonies counted
Method: Incubation of bacteria with the sphingosine analogs presented herein was carried out as follows. P. aeruginosa strain 762 was grown in LB medium at 37° C. until the early logarithmic phase (OD550 of 0.2). Bacteria were diluted in PBS (without Ca^+2 and Mg^+2) to a concentration of 5×10^3 CFU/ml. Stock solutions of sphingolipid analogs in 5 mM in 7.5% n-octyl-β-D-glucopyranoside (OGP) or in dimethyl sulfoxide (DMSO) were prepared by sonication and warming to 40° C. The sphingosine analogs presented herein were added to the bacteria (0.05-200 μM in 0.075% OGP or 1% DMSO). Bacteria were incubated with the sphingosine analogs presented herein for 2 hours at 37° C., and 200 μl of a bacteria solution plated on LB agar plates, incubated overnight at 37° C., and colonies counted.
The ability of the sphingo sine analogs presented herein to kill Pseudomonas aeruginosa in vitro, and based on the data shown below, concluded that the SPH analogs presented herein are highly efficient in killing bacteria. Compounds 791598 and 791577 were used as activity assay control references.
FIGS. 1A-D present comparative plots, showing the results of the P. aeruginosa strain 762 killing assay, conducted for sphingosine analogs presented herein.

[2] = molecular target: T1, CerS5 (Homo sapiens (Human), UniProt Q8N5B7); assay: N-acylation by CerS5 using labeled palmitoyl CoA, relative to sphinganine; type: biochemical; details: for N-Acylation using 14C labeled palmitoyl CoA: Yes/No, CerS5; for Rate of N-Acylation (either pmol/mg/min or % of control): unit not given; for Rate of N-Acylation (either pmol/mg/min or % of control) / Rate of N-Acylation: CerS5, labeled palmitoyl CoA; for Rate of N-Acylation: n=1-2; for Rate of N-Acylation (% of control): control sphinganine = 100% acylation
T1 sequence (Q8N5B7 whole entry, species assumed): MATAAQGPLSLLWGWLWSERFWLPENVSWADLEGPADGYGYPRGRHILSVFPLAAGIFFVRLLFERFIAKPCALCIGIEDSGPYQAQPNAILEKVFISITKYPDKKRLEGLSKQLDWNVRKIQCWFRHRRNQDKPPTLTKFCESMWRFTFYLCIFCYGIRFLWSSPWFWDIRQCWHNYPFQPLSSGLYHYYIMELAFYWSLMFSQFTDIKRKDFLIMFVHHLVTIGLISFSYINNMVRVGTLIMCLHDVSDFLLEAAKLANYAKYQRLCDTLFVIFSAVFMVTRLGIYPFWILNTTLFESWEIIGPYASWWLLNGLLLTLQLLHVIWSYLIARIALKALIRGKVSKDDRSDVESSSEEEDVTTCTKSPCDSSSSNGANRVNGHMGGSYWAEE
Method: (§1) N-acylation was determined by incubating homogenates with 15 μM dhSo, 20 μM defatted BSA and 0.01 uCi C16-[14C] acyl-CoA/46 μM C16 acyl-CoA in a final volume of 250 μl.
An additional assay determined whether the sphingosine analogs presented herein are N-acylated by CerS5 expressed, relative to sphinganine (control; 100% acylation), using labeled palmitoyl CoA (n=1-2).

[3] = molecular target: T1, CerS5; assay: CerS5 activity/inhibition assay using NBD sphinganine; type: biochemical; details: read-out: CerS5 activity (percentage of control); for remaining activity at 25 µM: 25 μM compound; for remaining activity at 50 µM: 50 μM compound; for remaining activity at 75 µM: 75 μM compound
Method: (§2) Ceramide synthase assays were carried out as follows. Cell homogenates were incubated with 15 μM NBD-SPH, 20 μM defatted bovine serum albumin, and 50 μM fatty acyl CoA in a 20 μl reaction volume at 37° C. Reactions were terminated by addition of chloroform/methanol (1:2, v/v) and lipids extracted. Lipids were dried under N2, re-suspended in chloroform/methanol (9:1, v/v) and separated by TLC using chloroform/methanol/2M NH4OH (40:10:1, v/v/v) as the developing solvent. NBD-labelled lipids were visualized using a Typhoon 9410 variable mode imager and quantified by ImageQuantTL (GE Healthcare, Chalfont St Giles, UK).
Table 4 below presents the results for the CerS5 activity/inhibition assay using NBD sphinganine (given as percentage of control).

[4] = molecular target: T1, CerS5; assay: Inhibition of ceramide synthesis (CerS5) measured in vitro; type: biochemical
Method: as §2

[5] = tested on: ceramide synthases (CerS); assay: N-acylation by ceramide synthases using 14C labeled CoA; type: biochemical; details: 14C labeled CoA as a substrate; raw data not shown
Method: as §1
To determine whether the sphingosine analogs presented herein can be metabolized by ceramide synthases (CerS—natural sphingosine is a substrate for CerS), their N-acylation using ^14C labeled CoA as a substrate was examined.

[6] = tested on: P. aeruginosa; details: injected immediately prior to infection, or an hour after infection; cited from earlier work

Structure (SMILES)	EC50 [1]	N-Acylation using 14C labeled palmitoyl CoA [2]	Rate of N-Acylation (either pmol/mg/min or % of control) [2]	remaining activity at 25 µM [3]	remaining activity at 50 µM [3]	remaining activity at 75 µM [3]	Rate of N-Acylation [2]	Rate of N-Acylation (% of control) [2]	CerS5 activity (% of control) [4]	N-acylation by CerS (substrate or not) [5]	P. aeruginosa infection in CF mice [6]
CCCCCCCCCCCCc1ccc(NC(=O)C(O)CN)cc1 (centres unmarked) [Compound 792211]	0.26 ± 0.09 µM	Yes	114.21 ± 3.11 pmol/mg/min or % of control	163 ± 37.9%	73.5 ± 8.98%	49.8 ± 26.6%					
CCCCCCCCCCCCCCNC(=O)[C@@H](N)CN [Compound 791994]	1.31 ± 0.4 µM	Yes	25.42 ± 6.97 pmol/mg/min or % of control								
CCCCCCCC/C=C\CCCCCCCC[C@@H](O)[C@H](N)CO [Compound 791601]	0.42 ± 0.05 µM	Yes					144.6 ± 51.7 pmol/mg/min	(27.32% of control)	88.5 ± 10.1 % of control		
CCCCCCCCCCCCCCCCNC(=O)C(N)CN (centres unmarked) [Compound 792208]	0.72 ± 0.26 µM		2.81 ± 1.06 pmol/mg/min or % of control	114 ± 21.4%	81.9 ± 7.15%	72.7 ± 5.76%					
CCCCCCCCCCCCCCNC(=O)[C@H](N)CN [Compound 791993]	0.94 ± 0.322 µM		0.98 ± 0.09 pmol/mg/min or % of control								
CCCCCCCCCCCCCCCCCCNC(=O)C(N)CN (centres unmarked) [Compound 792209]	> 2.5 µM	No									
CCCCCCCCCCCCc1ccc(NC(=O)[C@H](N)CN)cc1 [Compound 791996]	0.81 ± 0.24 µM	No	0.02 ± 0.003 pmol/mg/min or % of control	96.7 ± 12.8%	104 ± 21.2%	105 ± 13.9%				not substrates for CerS	
CCCCCCCCCCCCCCC[C@@H](O)[C@@H](N)CO [sphinganine, reference compound]									100 ± 0 % of control		
CCCCCCCCCCCCc1ccc(NC(=O)[C@@H](N)CN)cc1 [Compound 791995]	0.87 ± 0.091 µM	No	0.14 ± 0.004 pmol/mg/min or % of control	107 ± 24%	119 ± 20.9%	109 ± 26.9%				not substrates for CerS	
CCCCCCCCCCCCCCCCc1ccc(NC(=O)[C@@H](N)CN)cc1 [Compound 792206]	1.12 ± 0.18 µM	No	3.78 ± 0.24 pmol/mg/min or % of control	76.6 ± 12.8%		125 ± 37.4%					
CCCCCCCCCC/C=C/CCC(N)(O)CO (centres unmarked) [Compound 791581]	1.09 ± 0.31 µM	No					4.2 ± 4.5 pmol/mg/min	(0.79% of control)	71.5 ± 19.0 % of control		
CCCCC/C=C\C/C=C\CCCCCCCC[C@H](O)[C@@H](N)CO [Compound 791602]		Yes					146.9 ± 0.0 pmol/mg/min	(27.76% of control)	57.3 ± 12.2 % of control		
CCCCCCCCCCCCCCC[C@H](O)[C@H](CO)N(C)C [Compound 791577]	> 2.5 µM	No					4.7 ± 2.4 pmol/mg/min	(0.89% of control)	92.9 ± 28.7 % of control		
CCCCCCCCCCCCCCC[C@@H](O)[C@H](N)CN [Compound 791597]	0.89 ± 0.23 µM	No					18.8 ± 12.3 pmol/mg/min	(3.55% of control)	125.0 ± 31.1 % of control		
CCCCCCCCCCCCCCC[C@H](N)[C@H](CN)N(C)C [Compound 791580]	0.39 ± 0.06 µM	No					6.1 ± 2.6 pmol/mg/min	(1.15% of control)	58.1 ± 20.1 % of control		
CCCCCCCCCCCCCCC[C@@H](N)[C@H](CN)N(C)C [Compound 791579]	0.58 ± 0.14 µM	No					4.1 ± 3.0 pmol/mg/min	(0.77% of control)	69.2 ± 8.9 % of control		
CCCCCCCCCCCCc1ccc(NC(=O)[C@@H](N)CCN)cc1 [Compound 792212]	0.16 ± 0.07 µM	No	2.77 ± 0.65 pmol/mg/min or % of control	163 ± 82.3%	138 ± 59%	119 ± 32.8%					
CCCCCCCCc1ccc(CCC(N)(CO)CO)cc1 [FTY720, fingolimod]											completely blocked
CCCCCCCCCC/C=C/CCC(N)(N)CN [Compound 791582]	0.54 ± 0.18 µM	No					14.4 ± 7.7 pmol/mg/min	(2.72% of control)	68.2 ± 10.4 % of control		
CCCCCCCCCCCCCCC[C@H](N)[C@H](N)CN [Compound 791598]	0.99 ± 0.01 µM	No					10.4 ± 10.1 pmol/mg/min	(1.97% of control)	111.3 ± 34.9 % of control		
CCCCCCCCCCCCC/C=C/[C@@H](O)[C@@H](N)CO [sphingosine]											completely blocked
CCCCCCCCCCCCCCc1ccc(NC(=O)C(N)CN)cc1 (centres unmarked) [Compound 792205]	0.61 ± 0.2 µM	No	5.21 ± 1.33 pmol/mg/min or % of control	98.5 ± 18.1%	92.7 ± 19%	59.4 ± 12.1%					
CCCCCCCCCCCCCCC[C@H](O)[C@H](CN)N(C)C [Compound 791578]	1.44 ± 0.76 µM	No					55.0 ± 6.0 pmol/mg/min	(10.39% of control)	90.2 ± 16.4 % of control		
